Data on 7 compounds can be found in US8084621B2, “3-Pyrrolo[b]cyclohexylene-2-dihydroindolinone derivatives and uses thereof” (Jiangsu Simcere Pharmaceutical R&D Co. Ltd., priority 2006, dated 2011).

pIC50: −log10 of the molar value.

Holding throughout (format): cell-based
Assay [1] relates to Human Colon Cancer Cell Line (HT-29). Briefly: Tumor cell proliferation assay (MTT), HT29. The following applies: for inhibition at 10 µM: concentration of 10^−5 mol/L, preliminary screening, 72 hours, read-out: Inhibition rate % HT29; for pIC50: secondary screening, 48 hours. The text has this:
(§1) The assay used generally is the blue tetrazolium bromide (MTT) method. […] The amount of formazan can be detected by the microplate reader through the absorption value at 570 nm. The amount of formazan product generated is proportional to the number of living cells in the sample, so the OD value may reflect the number of living cells and the ability of a test drug to inhibit or kill cells. The MTT assay may be used in determining the ability of different compounds of the present invention to inhibit one or more cancer cells proliferation. Similar assays can be designed along the same lines for any cancer cell using techniques well known in the art.
(§2) The assay used generally is the blue tetrazolium bromide (MTT) method. […] Intracellular purple formazan salt crystals can be solved in DMSO and the absorption value at 570 nm is detected by the microplate reader, then the number of living cells can be detected indirectly. So MTT assay may be used to determine the ability of a compound of the present invention to inhibit cell proliferation. Similar assays can be designed along the same lines for any cancer cell using techniques well known in the art.
2.2.11 Human Colon Cancer Cell Line (HT-29);
(§3) The cells of 2.2.11, 2.2.12, 2.2.13 were cultured in MC COYS 5-A medium containing 12% fetal bovine serum in the condition of 37° C., 5% CO2.
(§4) 2.3.1 Cell seeding: Trypsinize the cell by 0.05% trypsin-EDTA and add RPMI 1640 medium (DMEM or 5A) containing 12% calf serum. Count the number, then dilute to 1.67×10^4/ml. Add 180 ul/well to the 96 well plate (3000 cells/well).
(§5) 2.3.2 Culture: cells are incubated for 24 hours at 37° C. under 5% CO2.
(§6) 2.3.3 Preliminary screening: The compounds are firstly diluted to 0.1 mol/L with DMSO, and then diluted to three concentrations of 10^−5 mol/L, 10^−6 mol/L and 10^−7 mol/L. Add 20 ul test compounds to the 96 well plate and incubate for 72 hours. Each group has three parallel wells and all experiments repeat three times. Each inhibition ratio is calculated, then an average value of three times is taken as the measured value. 2.3.4 Staining 2.3.4.1 Attached cell: add 20 ul/well MTT to the 96-well plates; incubate for 4 hours in the incubator. Pour out the culture medium in the well and add 100 ul/well DMSO. Shake the plate for 5 min. 2.3.4.2 Suspension cell: add 20 ul/well MTT to the 96-well plates; incubate for 4 hours in the incubator. Add 50 ul/well 20% SDS and incubate for overnight in the incubator. 2.3.5 Reading the plates: read the absorbance A570-A630 with the Infinite M200 microtiter plate reader. Calculate the inhibition ratio of the test compounds. […] Dilute these compounds to ten concentrations: 10^−5 mol/L, 0.5×10^−5 mol/L, 10^−6 mol/L, 0.8×10^−6 mol/L, 0.6×10^−6 mol/L, 0.4×10^−6 mol/L, 0.2×10^−6 mol/L, 10^−7 mol/L, 0.8×10^−7 mol/L and 0.4×10^−7 mol/L. Add 20 ul test compound solution to the 96 well plate and incubate for 48 hours. Each group has three parallel wells and all experiments repeat for three times. Read the plates and calculate the inhibition ratio according to the preliminary screening method. 2.3.7 Calculate the Inhibition Ratio of Cell Proliferation and the IC50
(§7) According to the inhibition ratio of cell proliferation at the different concentrations of the compound, inhibition ratio of 50% of the test compound is calculated through the logarithm of the concentration of the compound with the Logit [I] linear regression, and an average value of three times is taken as the measured value of a sample.

The subject of assay [2] is Human Ovarian Cancer Cell Line (SK-OV-3). In words: Tumor cell proliferation assay (MTT), SK-OV-3. The following applies: for inhibition at 10 µM: concentration of 10^−5 mol/L, preliminary screening, 72 hours, read-out: Inhibition rate % SK-OV-3; for pIC50: secondary screening, 48 hours.
Description: as §1, §2
2.2.13 Human Ovarian Cancer Cell Line (SK-OV-3).
as §3, §4, §5
(§8) 2.3.3 Preliminary screening: The compounds are firstly diluted to 0.1 mol/L with DMSO, and then diluted to three concentrations of 10^−5 mol/L, 10^−6 mol/L and 10^−7 mol/L. Add 20 ul test compounds to the 96 well plate and incubate for 72 hours. Each group has three parallel wells and all experiments repeat three times. Each inhibition ratio is calculated, then an average value of three times is taken as the measured value. 2.3.4 Staining 2.3.4.1 Attached cell: add 20 ul/well MTT to the 96-well plates; incubate for 4 hours in the incubator. Pour out the culture medium in the well and add 100 ul/well DMSO. Shake the plate for 5 min. 2.3.4.2 Suspension cell: add 20 ul/well MTT to the 96-well plates; incubate for 4 hours in the incubator. Add 50 ul/well 20% SDS and incubate for overnight in the incubator. 2.3.5 Reading the plates: read the absorbance A570-A630 with the Infinite M200 microtiter plate reader. Calculate the inhibition ratio of the test compounds. 2.3.6 Secondary screening: the compounds whose inhibition ratio is greater than 50% at the concentrations of 10^−5 mol/L in the preliminary screening will be picked out for Secondary screening. Dilute these compounds to ten concentrations: 10^−5 mol/L, 0.5×10^−5 mol/L, 10^−6 mol/L, 0.8×10^−6 mol/L, 0.6×10^−6 mol/L, 0.4×10^−6 mol/L, 0.2×10^−6 mol/L, 10^−7 mol/L, 0.8×10^−7 mol/L and 0.4×10^−7 mol/L. Add 20 ul test compound solution to the 96 well plate and incubate for 48 hours. Each group has three parallel wells and all experiments repeat for three times. Read the plates and calculate the inhibition ratio according to the preliminary screening method. 2.3.7 Calculate the Inhibition Ratio of Cell Proliferation and the IC50
as §7

In assay [3] the test system is Human Small Cell Lung Cancer Cell Line (NCI-H446). In words: Tumor cell proliferation assay (MTT), NCI-H446. Particulars: for inhibition at 10 µM: concentration of 10^−5 mol/L, preliminary screening, 72 hours, read-out: Inhibition rate % NCI-H446; for pIC50: secondary screening, 48 hours.
Description: as §1, §2
2.2.5 Human Small Cell Lung Cancer Cell Line (NCI-H446)
(§9) The cells of the 2.2.1, 2.2.2, 2.2.3, 2.2.4, 2.2.5 cultured with RPMI 1640 containing 12% calf serum in the condition of 37° C., 5% CO2.
as §4, §5, §8, §7

The subject of assay [4] is Human Gastric Cancer Cell Line (BGC). Briefly: Tumor cell proliferation assay (MTT), BGC. Particulars: for inhibition at 10 µM: concentration of 10^−5 mol/L, preliminary screening, 72 hours, read-out: Inhibition rate % BGC; for pIC50: secondary screening, 48 hours.
Description: as §1, §2
2.2.1 Human Gastric Cancer Cell Line (BGC)
as §9, §4, §5, §8, §7

In assay [5] the test system is Human Pancreatic Carcinoma Cell Line (BXPC-3). Briefly: Tumor cell proliferation assay (MTT), BXPC-3. Particulars: for inhibition at 10 µM: concentration of 10^−5 mol/L, preliminary screening, 72 hours, read-out: Inhibition rate % BXPC-3; for pIC50: secondary screening, 48 hours.
Description: as §1, §2
2.2.6 Human Pancreatic Carcinoma Cell Line (BXPC-3);
The cells of 2.2.6, 2.2.7 cultured in RPMI 1640 medium containing 12% fetal bovine serum in the condition of 37° C., 5% CO2.
as §4, §5, §6, §7

Assay [6] concerns Human Pancreatic Carcinoma Cells (PANC-1). Briefly: Tumor cell proliferation assay (MTT), PANC-1. The following applies: for inhibition at 10 µM: concentration of 10^−5 mol/L, preliminary screening, 72 hours, read-out: Inhibition rate % PANC-1; for pIC50: secondary screening, 48 hours.
Description: as §1, §2
2.2.4 Human Pancreatic Carcinoma Cells (PANC-1)
as §9, §4, §5, §8, §7

The test system of assay [7] is Human Non-Small Cell Lung Cancer Cell Line (A549). In words: Tumor cell proliferation assay (MTT), A549. Particulars: for inhibition at 10 µM: concentration of 10^−5 mol/L, preliminary screening, 72 hours, read-out: Inhibition rate % A549; for pIC50: secondary screening, 48 hours.
Description: as §1, §2
2.2.2 Human Non-Small Cell Lung Cancer Cell Line (A549)
as §9, §4, §5, §8, §7

With `Cc1[nH]c2c(c1C(=O)NCC(O)CN(C)C)CCC/C2=C1/C(=O)Nc2ccc(F)cc21` (stereo not drawn) [I-66, N-(3-(dimethylamino)-2-hydroxypropyl)-2-methyl-7-[1,2-dihydro-5-fluoro-2-oxo-3H-indol-(Z)-3-ylidene]-4,5,6,7-tetrahydro-1H-indole-3-carboxamide], the inhibition (as a rule, the drop in the measured response relative to a control, in per cent) at 10 µM in assay [1] was found to be 93%; in assay [2] it was 85.1%; in assay [3], 88.7%; in assay [4], 76.8%; in assay [5], 97.9%. The negative logarithm of the IC50 (pIC50) (as a rule, −log10 of the IC50, conventionally taken in molar units) was 5.54 in assay [1]; 5.50 in assay [2]; 5.52 in assay [3]; 5.33 in assay [4]; 5.50 in assay [5].

As to `Cc1ccc2c(c1)/C(=C1\CCCc3c1[nH]c(C)c3C(=O)NCC(O)CN(C)C1CCCCC1)C(=O)N2` (stereo not drawn) [I-79, N-[3-(cyclohexyl(methyl)amino)-2-hydroxypropyl]-2-methyl-7-[1,2-dihydro-5-methyl-2-oxo-3H-indol-(Z)-3-ylidene]-4,5,6,7-tetrahydro-1H-indole-3-carboxamide], the inhibition at 10 µM in assay [6] was found to be 96.8%; in assay [1], 98.2%; in assay [2], 96%; in assay [4], 81%; in assay [7], 63.3%; in assay [5], 99%. Also, the pIC50 in assay [6] is 5.40; in assay [1], 5.63; in assay [2], 5.82; in assay [3], 5.49; in assay [4], 5.64; in assay [7], 5.55. In assay [5], this compound gave a pIC50 of 6.08.

For `CCN(CC)CC(O)CNC(=O)c1c(C)[nH]c2c1CCC/C2=C1/C(=O)Nc2ccc(F)cc21` (stereo not drawn) [I-64, N-(3-(diethylamino)-2-hydroxypropyl)-2-methyl-7-[1,2-dihydro-5-fluoro-2-oxo-3H-indol-(Z)-3-ylidene]-4,5,6,7-tetrahydro-1H-indole-3-carboxamide], the inhibition at 10 µM in assay [1] was 96.6%; in assay [2] it was 93.5%; in assay [3], 98.1%; in assay [4], 84.7%; in assay [5], 98.5%. Also, the negative-log IC50 (pIC50) in assay [1] was 5.89; in assay [2] it was 5.65; in assay [3], 5.69; in assay [4], 5.66; in assay [5] it was 5.89.

Turning to `Cc1[nH]c2c(c1C(=O)NCC(O)CN1CCN(C)CC1)CCC/C2=C1/C(=O)Nc2ccc(Cl)cc21` (stereo not drawn) [I-78, N-[2-hydroxy-3-(4-methylpiperazin-1-yl)propyl]-2-methyl-7-[1,2-dihydro-5-chloro-2-oxo-3H-indol-(Z)-3-ylidene]-4,5,6,7-tetrahydro-1H-indole-3-carboxamide], the inhibition at 10 µM in assay [6] was 21.8%; in assay [1] it was 24.2%; in assay [2], 20.2%; in assay [3], 8.07%; in assay [4] it was 48.5%; in assay [7], 29.9%. For the same compound, the inhibition at 10 µM in assay [5] was 31.7%. Also, in assay [4], the negative-log IC50 (pIC50) was 4.92.

As to `Cc1[nH]c2c(c1C(=O)NCC(O)CN1CCN(C)CC1)CCC/C2=C1/C(=O)Nc2ccccc21` (stereo not drawn) [I-76, N-[2-hydroxy-3-(4-methylpiperazin-1-yl)propyl]-2-methyl-7-[1,2-dihydro-2-oxo-3H-indol-(Z)-3-ylidene]-4,5,6,7-tetrahydro-1H-indole-3-carboxamide], the inhibition at 10 µM in assay [6] came out at 80.1%; in assay [1], 92.1%; in assay [2], 90.3%; in assay [3] it was 64.6%; in assay [4], 74.2%; in assay [7], 64.5%. Besides, the inhibition at 10 µM in assay [5] amounted to 97.5%. In addition, the pIC50 was 5.47 in assay [6]; 5.86 in assay [1]; 5.52 in assay [2]; 5.15 in assay [3]; 5.44 in assay [4]; 5.87 in assay [7]. In assay [5], this compound showed a pIC50 of 5.65.

Consider `Cc1[nH]c2c(c1C(=O)NCC(O)CN1CCOCC1)CCC/C2=C1/C(=O)Nc2ccc(Cl)cc21` (stereo not drawn) [I-69, N-(2-hydroxy-3-morpholinopropyl)-2-methyl-7-[1,2-dihydro-5-chloro-2-oxo-3H-indol-(Z)-3-ylidene]-4,5,6,7-tetrahydro-1H-indole-3-carboxamide], for which the inhibition at 10 µM was 22.4% in assay [6]; 34.9% in assay [1]; 2.8% in assay [2]; 25.3% in assay [3]; 30% in assay [4]; 18.9% in assay [7]. For the same compound, the inhibition at 10 µM in assay [5] stood at 39.9%.

In the case of `Cc1[nH]c2c(c1C(=O)NCC(O)CN1CCOCC1)CCC/C2=C1/C(=O)Nc2ccccc21` (stereo not drawn) [I-67, N-(2-hydroxy-3-morpholinopropyl)-2-methyl-7-[1,2-dihydro-2-oxo-3H-indol-(Z)-3-ylidene]-4,5,6,7-tetrahydro-1H-indole-3-carboxamide], the inhibition at 10 µM was found to be 31.5% in assay [6]; 51.9% in assay [1]; 8.34% in assay [2]; 49.3% in assay [3]; 67.6% in assay [4]; 51.7% in assay [5]. The pIC50 in assay [1] was 5.16; in assay [3], 5.03; in assay [4], 5.37; in assay [5], 5.11.
